Where two headings read alike, the source gives them in different places.
Legend:
[1] = Metabolic stability in vitro, human liver microsomes (calculation of Fmax); format: in vitro ADME; details: for Human liver microsomes; Fmax [%]: 1 μM; for calculated maximal oral bioavailability (Fmax) at 1 μM: pH 7.4, determined by means of human liver microsomes, read-out: maximum oral bioavailability (Fmax) in human
Experimental: (§1) The metabolic stability of test compounds in vitro was determined by incubating them at 1 μM with a suspension liver microsomes in 100 mM phosphate buffer, pH7.4 (NaH2PO4×H2O+Na2HPO4×2H2O) at a protein concentration of 0.5 mg/mL and at 37° C. The reaction was activated by adding a co-factor mix containing 1.2 mg NADP, 3 IU glucose-6-phosphate dehydrogenase, 14.6 mg glucose-6-phosphate and 4.9 mg MgCl2 in phosphate buffer, pH 7.4. Organic solvent in the incubations was limited to <0.2% dimethylsulfoxide (DMSO) and <1% methanol. During incubation, the microsomal suspensions were continuously shaken and aliquots were taken at 2, 8, 16, 30, 45 and 60 min, to which equal volumes of cold methanol were immediately added. Samples were frozen at −20° C. over night, subsequently centrifuged for 15 minutes at 3000 rpm and the supernatant was analyzed with an Agilent 1200 HPLC-system with LCMS/MS detection.
(§2) The half-life of a test compound was determined from the concentration-time plot. From the half-life the intrinsic clearances were calculated. Together with the additional parameters liver blood flow, specific liver weight and microsomal protein content the hepatic in vivo blood clearance (CL) and the maximal oral bioavailability (Fmax) were calculated for the different species. The following parameter values were used: Liver blood flow—1.3 L/h/kg (human), 2.1 L/h/kg (dog), 4.2 L/h/kg (rat); specific liver weight—21 g/kg (human), 39 g/kg (dog), 32 g/kg (rat); microsomal protein content—40 mg/g.
(§3) With the described assay only phase-I metabolism of microsomes is reflected, e.g. typically oxidoreductive reactions by cytochrome P450 enzymes and flavin mono-oxygenases (FMO) and hydrolytic reactions by esterases (esters and amides).

[2] = test system: HeLa-MaTu-ADR, multidrug-resistant human cervical carcinoma cells; assay: Proliferation assay, HeLa-MaTu-ADR cells (crystal violet); format: cell-based; details: read-out: IC50 determined in a HeLa-MaTu-ADR cell proliferation assay
Experimental: (§4) Cultivated tumor cells (MCF7, hormone dependent human mammary carcinoma cells, ATCC HTB22; NCI-H460, human non-small cell lung carcinoma cells, ATCC HTB-177; DU 145, hormone-independent human prostate carcinoma cells, ATCC HTB-81; HeLa-MaTu, human cervical carcinoma cells, EPO-GmbH, Berlin; HeLa-MaTu-ADR, multidrug-resistant human cervical carcinoma cells, EPO-GmbH, Berlin; HeLa human cervical tumor cells, ATCC CCL-2; B16F10 mouse melanoma cells, ATCC CRL-6475) were plated at a density of 5000 cells/well (MCF7, DU145, HeLa-MaTu-ADR), 3000 cells/well (NCI-H460, HeLa-MaTu, HeLa), or 1000 cells/well (B16F10) in a 96-well multititer plate in 200 μl of their respective growth medium supplemented 10% fetal calf serum. After 24 hours, the cells of one plate (zero-point plate) were stained with crystal violet (see below), while the medium of the other plates was replaced by fresh culture medium (200 μl), to which the test substances were added in various concentrations (0 μM, as well as in the range of 0.01-30 μM; the final concentration of the solvent dimethyl sulfoxide was 0.5%). The cells were incubated for 4 days in the presence of test substances. Cell proliferation was determined by staining the cells with crystal violet: the cells were fixed by adding 20 μl/measuring point of an 11% glutaric aldehyde solution for 15 minutes at room temperature. After three washing cycles of the fixed cells with water, the plates were dried at room temperature. The cells were stained by adding 100 μl/measuring point of a 0.1% crystal violet solution (pH 3.0). After three washing cycles of the stained cells with water, the plates were dried at room temperature. The dye was dissolved by adding 100 μl/measuring point of a 10% acetic acid solution. The extinction was determined by photometry at a wavelength of 595 nm. The change of cell number, in percent, was calculated by normalization of the measured values to the extinction values of the zero-point plate (=0%) and the extinction of the untreated (0 μm) cells (=100%). The IC50 values were determined by means of a 4 parameter fit.

[3] = Solubility of compound A1 at 25° C. in different solvents; format: physicochemical
[4] = test system: HeLa human cervical tumor cells; assay: Proliferation assay, HeLa cells (crystal violet); format: cell-based
Experimental: as §4

[5] = Metabolic stability in vitro, dog liver microsomes (calculation of Fmax); format: in vitro ADME
Experimental: as §1, §2, §3

[6] = Metabolic stability in vitro, rat liver microsomes (calculation of Fmax); format: in vitro ADME
Experimental: as §1, §2, §3

human kinase Mps-1 [7] = target: T1, human kinase Mps-1 (Homo sapiens, UniProt P33981); assay: Mps-1 kinase assay (TR-FRET) with 2 mM ATP; format: biochemical
T1 construct: N-terminally GST-tagged human full length recombinant Mps-1 kinase; GST (N); purchased Invitrogen, Karslruhe, Germany PV4071
T1 sequence (P33981 1-857): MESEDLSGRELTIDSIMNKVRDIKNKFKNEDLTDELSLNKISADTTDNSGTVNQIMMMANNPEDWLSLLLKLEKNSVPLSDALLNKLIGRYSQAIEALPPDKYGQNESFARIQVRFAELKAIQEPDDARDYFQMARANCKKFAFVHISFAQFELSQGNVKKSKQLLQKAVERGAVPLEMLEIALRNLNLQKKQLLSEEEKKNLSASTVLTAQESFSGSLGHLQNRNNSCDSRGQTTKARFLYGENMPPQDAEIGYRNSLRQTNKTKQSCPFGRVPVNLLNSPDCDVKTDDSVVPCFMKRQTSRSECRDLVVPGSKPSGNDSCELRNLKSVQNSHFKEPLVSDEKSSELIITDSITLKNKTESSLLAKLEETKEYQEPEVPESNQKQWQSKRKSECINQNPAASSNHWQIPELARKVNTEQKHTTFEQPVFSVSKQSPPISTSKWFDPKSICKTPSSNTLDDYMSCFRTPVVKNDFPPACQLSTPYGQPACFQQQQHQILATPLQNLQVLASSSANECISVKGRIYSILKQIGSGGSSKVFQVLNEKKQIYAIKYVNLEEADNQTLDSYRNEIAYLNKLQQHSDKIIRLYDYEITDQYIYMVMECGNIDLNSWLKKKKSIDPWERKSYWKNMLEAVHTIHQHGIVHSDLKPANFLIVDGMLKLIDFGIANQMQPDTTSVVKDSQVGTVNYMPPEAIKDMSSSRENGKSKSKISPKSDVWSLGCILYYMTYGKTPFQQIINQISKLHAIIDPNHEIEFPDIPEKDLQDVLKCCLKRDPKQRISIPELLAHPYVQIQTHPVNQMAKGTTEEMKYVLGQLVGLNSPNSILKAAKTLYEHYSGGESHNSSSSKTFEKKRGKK

human kinase Mps-1 [8] = target: T1, human kinase Mps-1; assay: Mps-1 kinase assay (TR-FRET) with 10 μM ATP; format: biochemical
[9] = 96 h, HeLa cells, 4 days, read-out: Inhibition of cell proliferation, cell Line: HeLa IC50
[10] = HeLa, comparison table with comparative examples, read-out: Inhibition of cell proli-feration, cell line: HeLa, IC50
[11] = HeLa, read-out: IC50 in a HeLa cell proliferation assay
[12] = comparison table with comparative examples
[13] = IC50 in an Mps-1 kinase assay with a concentration of 2 mM ATP
[14] = Mps-1 Inhibition, IC50 in M (Assay with 2 mM ATP)
[15] = IC50 in an Mps-1 kinase assay with a concentration of 10 μM ATP
[16] = Mps-1 Inhibition, IC50 (Assay with 10 μM ATP), comparison table with comparative examples
[17] = Mps-1 Inhibition, IC50 in M (Assay with 10 μM ATP)

| Human liver microsomes; Fmax [%] [1] [%] | calculated maximal oral bioavailability (Fmax) at 1 μM [1] [%] | IC50 [2] [nM] | IC50 [4, 9] [nM] | IC50 [4, 10] [nM] | IC50 [4, 11] [nM] | Dog liver microsomes; Fmax [%] [5, 12] [%] | Dog liver microsomes; Fmax [%] ([5]; dog liver microsomes, 1 μM) | Rat liver microsomes; Fmax [%] [6, 12] [%] | Rat liver microsomes; Fmax [%] ([6]; rat liver microsomes, 1 μM) | IC50 (human kinase Mps-1 [7]; [13]) [nM] | IC50 (human kinase Mps-1 [7]; [14]) [nM] | IC50 (human kinase Mps-1 [8]; [15]) [nM] | IC50 (human kinase Mps-1 [8]; [16]) [nM] | IC50 (human kinase Mps-1 [8]; [17]) [nM] | Compound | also measured |
| --- | --- | --- | --- | --- | --- | --- | --- | --- | --- | --- | --- | --- | --- | --- | --- | --- |
| 69 | > 60 | < 10000 | < 100 | < 100 | < 400 | 57 | 57 | 89 | 89 | < 2 | < 1 | ≤ 1 | < 1 | < 1 | C[C@@H](C(=O)Nc1ccc(-c2ccc3nc(Nc4ccc(C(=O)N5CC(F)C5)cc4OCC(F)(F)F)nn3c2)cc1)c1ccc(F)cc1 [Compound A5, (2R)-N-{4-[2-({4-[(3-fluoroazetidin-1-yl)carbonyl]-2-(2,2,2-trifluoroethoxy)phenyl}amino)[1,2,4]triazolo[1,5-α]pyridin-6-yl]phenyl}-2-(4-fluorophenyl)propanamide] | – |
| 62 | > 60 | < 10000 | < 100 | < 100 | < 400 | 75 | 75 | 74 | 74 | < 2 | < 1 | ≤ 1 | < 1 | < 1 | COc1cc(C(=O)N2CCC2)ccc1Nc1nc2ccc(-c3ccc(NC(=O)[C@H](C)c4ccc(F)cc4)cc3)cn2n1 [Compound A4, (2R)-N-[4-(2-{[4-(azetidin-1-ylcarbonyl)-2-methoxyphenyl]amino}[1,2,4]-triazolo[1,5-α]pyridin-6-yl)phenyl]-2-(4-fluorophenyl)propanamide] | – |
| >95 | > 60 | < 10000 | < 200 | < 200 | < 400 | 55 | 55 | 93 | 93 | < 2 | < 1 | ≤ 1 | < 1 | < 1 | C[C@@H](C(=O)Nc1ccc(-c2ccc3nc(Nc4ccc(S(C)(=O)=O)cc4OCC(F)(F)F)nn3c2)cc1)c1ccc(F)cc1 [Compound A2, (2R)-2-(4-fluorophenyl)-N-[4-(2-{[4-(methylsulfonyl)-2-(2,2,2-trifluoro-ethoxy)phenyl]amino}[1,2,4]triazolo[1,5-α]pyridin-6-yl)phenyl]-propanamide] | – |

| Compound | Human liver microsomes; Fmax [%] [1] [%] | calculated maximal oral bioavailability (Fmax) at 1 μM [1] [%] | IC50 [2] [nM] | IC50 [4, 9] [nM] | IC50 [4, 10] [nM] | IC50 [4, 11] [nM] | Dog liver microsomes; Fmax [%] [5, 12] [%] | Dog liver microsomes; Fmax [%] ([5]; dog liver microsomes, 1 μM) | Rat liver microsomes; Fmax [%] [6, 12] [%] | Rat liver microsomes; Fmax [%] ([6]; rat liver microsomes, 1 μM) | IC50 (human kinase Mps-1 [7]; [13]) [nM] | IC50 (human kinase Mps-1 [7]; [14]) [nM] | IC50 (human kinase Mps-1 [8]; [15]) [nM] | IC50 (human kinase Mps-1 [8]; [16]) [nM] | IC50 (human kinase Mps-1 [8]; [17]) [nM] | also measured |
| --- | --- | --- | --- | --- | --- | --- | --- | --- | --- | --- | --- | --- | --- | --- | --- | --- |
| COc1cc(S(C)(=O)=O)ccc1Nc1nc2ccc(-c3ccc(NC(=O)[C@H](C)c4ccc(F)cc4)cc3)cn2n1 [Compound A1, (2R)-2-(4-fluorophenyl)-N-[4-(2-{[2-methoxy-4-(methylsulfonyl)phenyl]-amino}[1,2,4]triazolo[1,5-α]pyridin-6-yl)phenyl]propanamide] | 92 | > 60 | < 10000 | < 400 | < 400 | < 400 | 64 | 64 | 92 | 92 | – | – | – | – | – | dissolved amount in mg/100 mL solution ([3]; 0.1M HCl in water): <0.1 mg/100 mL; dissolved amount in mg/100 mL solution ([3]; aqueous solution, acetate buffer pH 4.5): <0.1 mg/100 mL; dissolved amount in mg/100 mL solution ([3]; aqueous solution, phopshate buffer pH 7): <0.1 mg/100 mL; dissolved amount in mg/100 mL solution ([3]; aqueous solution, phopshate buffer pH 8): <0.1 mg/100 mL; dissolved amount in mg/100 mL solution ([3]; solvent acetone): 1518.3 mg/100 mL; dissolved amount in mg/100 mL solution ([3]; solvent acetonitrile): 350.2 mg/100 mL; dissolved amount in mg/100 mL solution ([3]; solvent ethanol): 45.7 mg/100 mL; dissolved amount in mg/100 mL solution ([3]; solvent water): <0.1 mg/100 mL |

Source: patent publication US9586958B2, “Prodrug derivatives of substituted triazolopyridines” (BAYER PHARMA AKTIENGESELLSCHAFT, priority 2013, dated 2017)
